According to publication PMC7488503 (Acta Pharmaceutica Sinica. B, 2020):
Values belong to the compound of their own block, whether it stands above or below them.

Legend:
MAP4K4 = MAP4K4 (Homo sapiens, UniProt O95819); test: Z′-LYTE kinase inhibition assay
[1] = Pharmacokinetic study in rats; format: in vivo; conditions: both, Sprague-Dawley, rat, plasma
[2] = Pharmacokinetic study in beagles; format: in vivo; conditions: both, beagle, dog, plasma
CAMK2α = CAMK2α (Homo sapiens, UniProt Q9UQM7); test: Z′-LYTE kinase inhibition assay
DYRK3 = DYRK3 (Homo sapiens, UniProt O43781); test: Z′-LYTE kinase inhibition assay
[3] = system: A549 lung cancer xenograft; test: A549 lung cancer subcutaneous xenograft model; format: in vivo, Balb/c nude mice; conditions: for T/C / TGI: Day 21; for Tumor volume at Day 21 / area of CD31 (tumor micro-vessel density, IHC): mean ± SEM; for area of CD31 (tumor micro-vessel density, IHC): n = 3, control 3.38 ± 0.49
[4] = H&E staining of vital organs of treated mice; format: in vivo, nude mice; conditions: 100 and 200 mg/kg, p.o., QD × 3 weeks
CDK2 = CDK2 (Homo sapiens, UniProt P24941); test: Z′-LYTE kinase inhibition assay
[5] = system: phosphorylation of FGFR1‒4 and ERK; test: Western blot, FGF/FGFRs/ERK signalling in HUVECs; format: cell-based, human; conditions: 5.0 μmol/L; induced by 50 ng/mL bFGF in HUVECs; P < 0.01
MST4 = MST4 (Homo sapiens, UniProt Q9P289); test: Z′-LYTE kinase inhibition assay
FGFR2 = FGFR2 (Homo sapiens, UniProt P21802); test: Z′-LYTE kinase inhibition assay
[6] = system: phosphorylation of PDGFRβ and ERK; test: Western blot, PDGF/PDGFRβ/ERK signalling in HBVPs; format: cell-based, human; conditions: 0.5 and 5.0 μmol/L; induced by 50 ng/mL PDGF-BB in HBVPs
[7] = system: phosphorylation of VEGFR2 and ERK; test: Western blot, VEGF/VEGFR2/ERK signalling in HUVECs; format: cell-based, human; conditions: 5.0 μmol/L; induced by 50 ng/mL hVEGF 165 in HUVECs; P < 0.01
[8] = system: NCI-H520 lung cancer xenograft; test: NCI-H520 lung cancer subcutaneous xenograft model; format: in vivo, Balb/c nude mice; conditions: for T/C / TGI: Day 21; for Tumor volume at Day 21 / area of CD31 (tumor micro-vessel density, IHC): mean ± SEM; for area of CD31 (tumor micro-vessel density, IHC): n = 3, control 4.96 ± 0.62
PKA = PKA (Homo sapiens, UniProt P17612); test: Z′-LYTE kinase inhibition assay
[9] = system: patient-derived tumor (LI-03-0020) xenograft; test: Liver cancer patient-derived tumor xenograft; format: in vivo, Balb/c nude mice
HUVECs [10] = test: HUVEC tube formation assay; format: cell-based, human; conditions: induced by 50 ng/mL hVEGF-165; 0.5 and 5.0 μmol/L; vs. hVEGF-165 control, P < 0.01
TAOK2 = TAOK2 (Homo sapiens, UniProt Q9UL54); test: Z′-LYTE kinase inhibition assay
SRC = SRC (Homo sapiens, UniProt P12931); test: Z′-LYTE kinase inhibition assay
PDK1 = PDK1 (Homo sapiens, UniProt O15530); test: Z′-LYTE kinase inhibition assay
EphA2 = EphA2 (Homo sapiens, UniProt P29317); test: Z′-LYTE kinase inhibition assay
HUVECs [11] = conditions: 5.0 μmol/L (P < 0.05), 50.0 μmol/L (P < 0.001) vs. hVEGF-165 treated control
CHK1 = CHK1 (Homo sapiens, UniProt O14757); test: Z′-LYTE kinase inhibition assay
HUVECs [12] = test: VEGF-induced HUVECs proliferation; format: cell-based; conditions: Homo sapiens, HUVEC, 72 h, read-out: IC50 HUVECs
p38α = p38α (Homo sapiens, UniProt Q16539); test: Z′-LYTE kinase inhibition assay
[13] = system: CT26 colon adenocarcinoma cells; test: Tumor xenograft model in transgenic zebrafish; format: in vivo; conditions: 0.5 and 2.0 μmol/L in fish water, 7 days
JAK2 = JAK2 (Homo sapiens, UniProt O60674); test: Z′-LYTE kinase inhibition assay
GSK3β = GSK3β (Homo sapiens, UniProt P49841); test: Z′-LYTE kinase inhibition assay
MAPKAPK2 = MAPKAPK2 (Homo sapiens, UniProt P49137); test: Z′-LYTE kinase inhibition assay
JNK1 = JNK1 (Homo sapiens, UniProt P45983); test: Z′-LYTE kinase inhibition assay
VEGFR3 = VEGFR3 (Homo sapiens, UniProt P35916); test: Z′-LYTE kinase inhibition assay
CK1α = CK1α (Homo sapiens, UniProt P48729); test: Z′-LYTE kinase inhibition assay
HBVPs = test: PDGF-BB-induced HBVPs proliferation; format: cell-based; conditions: Homo sapiens, 48 h, read-out: IC50 HBVPs
HUVECs [14] = test: Transwell invasion assay; format: cell-based, human; conditions: driven by 50 ng/mL hVEGF-165; dose-dependent; 0.5 μmol/L P < 0.01; 5.0 and 50.0 μmol/L P < 0.001
VEGFR2 = VEGFR2 (Homo sapiens, UniProt P35968); test: Z′-LYTE kinase inhibition assay
FGFR1 = FGFR1 (Homo sapiens, UniProt P11362); test: Z′-LYTE kinase inhibition assay
PDGFRβ = PDGFRβ (Homo sapiens, UniProt P09619); test: Z′-LYTE kinase inhibition assay
[15] = liver cancer PDX model, 200 mg/kg oral QD, Day 21

Chain of SRC (P12931 whole entry): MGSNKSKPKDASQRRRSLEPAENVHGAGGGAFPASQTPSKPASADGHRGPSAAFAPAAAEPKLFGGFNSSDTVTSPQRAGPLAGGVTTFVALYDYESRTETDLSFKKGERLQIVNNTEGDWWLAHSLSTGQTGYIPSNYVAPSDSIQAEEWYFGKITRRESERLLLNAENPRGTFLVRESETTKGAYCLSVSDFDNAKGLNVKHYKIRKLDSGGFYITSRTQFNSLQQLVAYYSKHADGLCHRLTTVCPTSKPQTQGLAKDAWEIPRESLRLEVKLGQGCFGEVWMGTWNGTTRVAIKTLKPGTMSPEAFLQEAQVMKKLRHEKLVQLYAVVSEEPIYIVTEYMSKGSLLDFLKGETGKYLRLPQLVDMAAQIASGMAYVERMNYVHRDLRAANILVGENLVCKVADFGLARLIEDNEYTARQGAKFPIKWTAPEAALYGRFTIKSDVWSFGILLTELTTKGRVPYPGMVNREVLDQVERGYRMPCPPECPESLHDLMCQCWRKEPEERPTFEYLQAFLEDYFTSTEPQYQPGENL
Chain of FGFR2 (P21802 22-821): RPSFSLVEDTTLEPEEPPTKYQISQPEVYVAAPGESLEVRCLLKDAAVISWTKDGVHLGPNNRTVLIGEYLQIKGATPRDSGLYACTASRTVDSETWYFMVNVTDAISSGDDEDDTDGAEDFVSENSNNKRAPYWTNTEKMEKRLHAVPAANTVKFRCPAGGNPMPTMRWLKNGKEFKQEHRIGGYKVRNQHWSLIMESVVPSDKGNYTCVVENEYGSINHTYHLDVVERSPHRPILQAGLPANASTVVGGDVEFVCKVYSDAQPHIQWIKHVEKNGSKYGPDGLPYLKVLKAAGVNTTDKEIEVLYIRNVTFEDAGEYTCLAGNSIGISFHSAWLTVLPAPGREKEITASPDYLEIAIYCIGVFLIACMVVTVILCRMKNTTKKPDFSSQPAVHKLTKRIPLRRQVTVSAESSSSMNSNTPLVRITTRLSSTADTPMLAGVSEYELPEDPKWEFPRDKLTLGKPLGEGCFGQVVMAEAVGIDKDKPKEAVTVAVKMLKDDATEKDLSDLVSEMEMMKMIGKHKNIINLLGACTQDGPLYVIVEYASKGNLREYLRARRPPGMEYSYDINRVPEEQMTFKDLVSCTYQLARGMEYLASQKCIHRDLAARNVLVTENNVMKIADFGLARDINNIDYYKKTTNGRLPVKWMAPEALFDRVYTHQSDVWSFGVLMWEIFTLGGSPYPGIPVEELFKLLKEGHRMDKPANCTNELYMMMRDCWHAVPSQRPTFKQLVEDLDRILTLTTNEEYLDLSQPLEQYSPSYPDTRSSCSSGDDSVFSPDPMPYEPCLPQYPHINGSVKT
Chain of PDGFRβ (P09619 33-1106): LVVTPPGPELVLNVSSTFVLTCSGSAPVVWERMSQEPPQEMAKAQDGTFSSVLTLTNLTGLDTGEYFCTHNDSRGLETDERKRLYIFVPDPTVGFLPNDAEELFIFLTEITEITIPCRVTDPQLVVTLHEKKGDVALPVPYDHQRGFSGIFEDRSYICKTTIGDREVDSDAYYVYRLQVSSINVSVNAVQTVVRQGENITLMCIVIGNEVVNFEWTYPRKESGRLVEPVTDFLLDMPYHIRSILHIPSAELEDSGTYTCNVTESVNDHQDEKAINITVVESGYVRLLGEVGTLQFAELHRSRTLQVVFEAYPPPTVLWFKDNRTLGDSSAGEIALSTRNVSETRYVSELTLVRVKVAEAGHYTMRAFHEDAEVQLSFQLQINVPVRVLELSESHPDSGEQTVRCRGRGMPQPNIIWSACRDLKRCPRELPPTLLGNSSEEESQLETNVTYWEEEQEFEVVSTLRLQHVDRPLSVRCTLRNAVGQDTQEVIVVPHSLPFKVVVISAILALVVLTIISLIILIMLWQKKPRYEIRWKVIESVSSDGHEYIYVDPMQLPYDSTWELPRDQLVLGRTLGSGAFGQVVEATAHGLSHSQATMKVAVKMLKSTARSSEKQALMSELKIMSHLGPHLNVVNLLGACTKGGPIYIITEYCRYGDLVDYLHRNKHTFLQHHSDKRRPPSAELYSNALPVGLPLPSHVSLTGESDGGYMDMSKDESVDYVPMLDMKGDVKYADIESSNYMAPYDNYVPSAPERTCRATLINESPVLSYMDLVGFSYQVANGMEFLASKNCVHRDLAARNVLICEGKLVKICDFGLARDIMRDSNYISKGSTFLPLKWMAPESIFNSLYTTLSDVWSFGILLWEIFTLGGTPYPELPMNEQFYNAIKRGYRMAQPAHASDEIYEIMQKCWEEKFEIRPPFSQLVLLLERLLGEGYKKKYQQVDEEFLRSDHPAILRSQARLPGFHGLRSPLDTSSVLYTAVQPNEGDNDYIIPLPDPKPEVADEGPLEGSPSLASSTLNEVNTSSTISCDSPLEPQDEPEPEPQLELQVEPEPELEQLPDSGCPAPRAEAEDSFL
Chain of GSK3β (P49841 whole entry): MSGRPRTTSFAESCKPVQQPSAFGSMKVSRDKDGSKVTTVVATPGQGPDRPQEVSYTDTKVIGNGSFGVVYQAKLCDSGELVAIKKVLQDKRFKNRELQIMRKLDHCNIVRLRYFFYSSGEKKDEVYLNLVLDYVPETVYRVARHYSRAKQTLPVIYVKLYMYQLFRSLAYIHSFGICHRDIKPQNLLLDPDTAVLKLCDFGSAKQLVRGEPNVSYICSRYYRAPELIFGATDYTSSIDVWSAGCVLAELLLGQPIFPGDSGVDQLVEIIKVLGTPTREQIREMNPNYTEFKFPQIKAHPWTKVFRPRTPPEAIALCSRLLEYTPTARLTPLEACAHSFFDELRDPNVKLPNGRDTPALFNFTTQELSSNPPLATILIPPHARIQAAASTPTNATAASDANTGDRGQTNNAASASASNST
Chain of p38α (Q16539 whole entry): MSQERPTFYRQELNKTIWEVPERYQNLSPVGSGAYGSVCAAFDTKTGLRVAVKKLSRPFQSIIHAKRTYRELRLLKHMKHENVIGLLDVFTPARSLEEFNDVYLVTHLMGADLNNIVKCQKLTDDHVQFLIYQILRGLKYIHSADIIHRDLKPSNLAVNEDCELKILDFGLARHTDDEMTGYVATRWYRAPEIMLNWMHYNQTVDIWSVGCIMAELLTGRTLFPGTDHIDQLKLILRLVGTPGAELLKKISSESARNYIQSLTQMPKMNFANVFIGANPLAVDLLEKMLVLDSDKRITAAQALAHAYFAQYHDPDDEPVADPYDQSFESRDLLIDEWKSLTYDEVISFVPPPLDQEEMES
Chain of CHK1 (O14757 whole entry): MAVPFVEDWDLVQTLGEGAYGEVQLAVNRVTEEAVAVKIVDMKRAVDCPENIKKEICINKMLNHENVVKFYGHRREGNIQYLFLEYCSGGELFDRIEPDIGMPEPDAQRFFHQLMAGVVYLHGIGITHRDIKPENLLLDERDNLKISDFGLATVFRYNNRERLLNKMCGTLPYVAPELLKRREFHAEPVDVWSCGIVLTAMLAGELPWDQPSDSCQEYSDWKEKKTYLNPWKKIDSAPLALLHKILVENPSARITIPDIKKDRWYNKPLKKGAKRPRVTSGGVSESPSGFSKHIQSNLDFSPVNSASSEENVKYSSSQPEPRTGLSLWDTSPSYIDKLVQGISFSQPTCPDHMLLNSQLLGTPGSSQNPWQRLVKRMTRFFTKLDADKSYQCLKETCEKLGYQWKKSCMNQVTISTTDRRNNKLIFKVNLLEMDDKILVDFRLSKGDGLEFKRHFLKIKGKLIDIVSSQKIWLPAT
Chain of JNK1 (P45983 whole entry): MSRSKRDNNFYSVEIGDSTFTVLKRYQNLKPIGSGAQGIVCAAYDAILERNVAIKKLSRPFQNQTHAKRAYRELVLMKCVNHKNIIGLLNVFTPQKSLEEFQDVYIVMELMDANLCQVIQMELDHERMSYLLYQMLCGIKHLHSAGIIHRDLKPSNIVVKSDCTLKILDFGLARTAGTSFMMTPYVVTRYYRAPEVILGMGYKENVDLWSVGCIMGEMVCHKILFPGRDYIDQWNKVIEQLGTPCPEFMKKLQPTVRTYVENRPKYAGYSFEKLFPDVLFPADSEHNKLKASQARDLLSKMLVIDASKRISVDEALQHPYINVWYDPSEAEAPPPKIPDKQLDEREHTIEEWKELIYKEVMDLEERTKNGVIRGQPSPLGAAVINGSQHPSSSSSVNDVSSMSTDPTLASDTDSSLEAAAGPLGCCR
Chain of EphA2 (P29317 24-976): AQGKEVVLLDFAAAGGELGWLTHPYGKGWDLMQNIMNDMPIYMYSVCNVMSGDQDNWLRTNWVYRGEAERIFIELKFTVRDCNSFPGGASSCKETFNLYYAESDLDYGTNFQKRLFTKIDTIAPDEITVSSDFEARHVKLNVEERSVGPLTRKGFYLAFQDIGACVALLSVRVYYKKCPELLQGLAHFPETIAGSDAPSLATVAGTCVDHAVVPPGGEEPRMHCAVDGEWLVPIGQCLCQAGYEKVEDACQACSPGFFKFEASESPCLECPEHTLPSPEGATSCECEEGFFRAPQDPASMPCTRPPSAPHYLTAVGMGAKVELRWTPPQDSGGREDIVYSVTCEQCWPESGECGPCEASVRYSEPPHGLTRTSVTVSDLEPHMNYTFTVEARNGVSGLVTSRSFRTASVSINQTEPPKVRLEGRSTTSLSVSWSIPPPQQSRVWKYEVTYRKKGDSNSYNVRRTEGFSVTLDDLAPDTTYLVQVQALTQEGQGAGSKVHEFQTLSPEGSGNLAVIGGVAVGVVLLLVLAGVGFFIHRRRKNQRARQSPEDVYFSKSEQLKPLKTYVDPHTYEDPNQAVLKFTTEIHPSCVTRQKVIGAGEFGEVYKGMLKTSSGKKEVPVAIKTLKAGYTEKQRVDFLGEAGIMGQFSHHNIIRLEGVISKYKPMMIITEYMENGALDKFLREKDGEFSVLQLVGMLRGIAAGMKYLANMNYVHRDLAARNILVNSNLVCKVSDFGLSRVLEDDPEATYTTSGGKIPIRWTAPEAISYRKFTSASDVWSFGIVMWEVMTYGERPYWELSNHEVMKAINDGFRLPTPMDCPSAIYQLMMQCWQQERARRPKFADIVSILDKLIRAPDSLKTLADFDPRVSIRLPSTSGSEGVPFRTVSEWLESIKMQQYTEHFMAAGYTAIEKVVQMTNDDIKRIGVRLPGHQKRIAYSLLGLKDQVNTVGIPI

IC50 (MAP4K4): 79 nM
AUC(0-inf) ([1]; iv, 3 mg/kg): 35.2 ± 8.3 µM·h
AUC(0-t) ([1]; iv, 3 mg/kg): 35 ± 8.2 µM·h
Cmax ([1]; iv, 3 mg/kg): 40.4 ± 3 µM
Vd ([1]; iv, 3 mg/kg): 0.26 ± 0.05 L/kg
clearance ([1]; iv, 3 mg/kg): 3.24 ± 0.81 mL/min/kg
half-life ([1]; iv, 3 mg/kg): 1.18 ± 0.18 h
AUC(0-inf) ([1]; po, 15 mg/kg): 77.7 ± 39.6 µM·h
AUC(0-t) ([1]; po, 15 mg/kg): 74.6 ± 36.3 µM·h
Cmax ([1]; po, 15 mg/kg): 26 ± 13.3 µM
Tmax ([1]; po, 15 mg/kg): 0.58 ± 0.2 h
bioavailability ([1]; po, 15 mg/kg): 42%
half-life ([1]; po, 15 mg/kg): 2.21 ± 0.39 h
AUC(0-inf) ([1]; po, 50 mg/kg): 110 ± 84.9 µM·h
AUC(0-t) ([1]; po, 50 mg/kg): 110 ± 84.9 µM·h
Cmax ([1]; po, 50 mg/kg): 32.3 ± 11.3 µM
Tmax ([1]; po, 50 mg/kg): 0.54 ± 0.25 h
bioavailability ([1]; po, 50 mg/kg): 18.7%
half-life ([1]; po, 50 mg/kg): 2 ± 0.55 h
AUC(0-inf) ([1]; po, 50 mg/kg/day): 151 ± 63.5 µM·h
AUC(0-t) ([1]; po, 50 mg/kg/day): 160 ± 60.3 µM·h
Cmax at 7 days ([1]; po, 50 mg/kg/day): 46.5 ± 13.9 µM
Tmax at 7 days ([1]; po, 50 mg/kg/day): 1.42 ± 0.67 h
half-life at 7 days ([1]; po, 50 mg/kg/day): 2.17 ± 0.55 h
AUC(0-inf) ([1]; po, 150 mg/kg): 233 ± 158 µM·h
AUC(0-t) ([1]; po, 150 mg/kg): 232 ± 158 µM·h
Cmax ([1]; po, 150 mg/kg): 48.7 ± 9.5 µM
Tmax ([1]; po, 150 mg/kg): 1.58 ± 2.26 h
bioavailability ([1]; po, 150 mg/kg): 13%
half-life ([1]; po, 150 mg/kg): 2.54 ± 0.8 h
AUC(0-inf) ([2]; iv, 2 mg/kg): 5.13 ± 0.9 µM·h
AUC(0-t) ([2]; iv, 2 mg/kg): 5.1 ± 0.9 µM·h
Cmax ([2]; iv, 2 mg/kg): 4.36 ± 0.96 µM
Vd ([2]; iv, 2 mg/kg): 1.45 ± 0.33 L/kg
clearance ([2]; iv, 2 mg/kg): 14.5 ± 2.74 mL/min/kg
half-life ([2]; iv, 2 mg/kg): 4.91 ± 2.18 h
AUC(0-inf) ([2]; po, 10 mg/kg): 20.2 ± 20.2 µM·h
AUC(0-t) ([2]; po, 10 mg/kg): 19.6 ± 20.2 µM·h
Cmax ([2]; po, 10 mg/kg): 6.28 ± 6.57 µM
Tmax ([2]; po, 10 mg/kg): 1.25 ± 0.612 h
bioavailability ([2]; po, 10 mg/kg): 76.9%
half-life ([2]; po, 10 mg/kg): 5.77 ± 2.17 h
AUC(0-inf) ([2]; po, 30 mg/kg): 51.8 ± 62.3 µM·h
AUC(0-t) ([2]; po, 30 mg/kg): 50 ± 58.8 µM·h
Cmax ([2]; po, 30 mg/kg): 16.2 ± 16.5 µM
Tmax ([2]; po, 30 mg/kg): 0.917 ± 0.585 h
bioavailability ([2]; po, 30 mg/kg): 65.4%
half-life ([2]; po, 30 mg/kg): 5.25 ± 1.03 h
AUC(0-inf) ([2]; po, 30 mg/kg/day): 37.9 ± 31.9 µM·h
AUC(0-t) ([2]; po, 30 mg/kg/day): 23.7 ± 16.1 µM·h
Cmax at 7 days ([2]; po, 30 mg/kg/day): 6.97 ± 5.26 µM
Tmax at 7 days ([2]; po, 30 mg/kg/day): 1.08 ± 0.736 h
half-life ([2]; po, 30 mg/kg/day): 12.3 ± 12.6 h
AUC(0-inf) ([2]; po, 100 mg/kg): 230 ± 51.5 µM·h
AUC(0-t) ([2]; po, 100 mg/kg): 199 ± 90.5 µM·h
Cmax ([2]; po, 100 mg/kg): 47.8 ± 20.8 µM
Tmax ([2]; po, 100 mg/kg): 2.33 ± 0.816 h
bioavailability ([2]; po, 100 mg/kg): 78%
half-life ([2]; po, 100 mg/kg): 2.99 ± 0.7 h
IC50 (CAMK2α): > 10000 nM
IC50 (DYRK3): > 10000 nM
pathologic changes in heart, liver, spleen, lung and kidney (H&E) [4]: No significant pathologic changes
IC50 (CDK2): > 10000 nM
IC50 (MST4): > 10000 nM
IC50 (FGFR2): 15.5 nM
IC50 (PKA): > 10000 nM
IC50 (TAOK2): > 10000 nM
IC50 (SRC): 2650 nM
IC50 (PDK1): > 10000 nM
IC50 (EphA2): > 3330 nM
IC50 (CHK1): > 10000 nM
IC50 (p38α): > 3330 nM
IC50 (JAK2): > 10000 nM
IC50 (GSK3β): > 10000 nM
IC50 (MAPKAPK2): > 10000 nM
IC50 (JNK1): > 10000 nM
IC50 (VEGFR3): 8.5 nM
IC50 (CK1α): > 10000 nM
SMILES: COc1cc2nccc(Oc3ccc(NC(=S)NC4CC4)c(Cl)c3F)c2cc1C(N)=O [WXFL-152, 4-(3-Chloro-4-(3-cyclopropylthioureido)-2-fluorophenoxy)-7-methoxyquinoline-6-carboxamide]
T/C ([3]; 50 mg/kg p.o. QD): 29%
TGI ([3]; 50 mg/kg p.o. QD): 78%
Tumor volume at Day 21 ([3]; 50 mg/kg p.o. QD): 430 ± 42 mm^3
area of CD31 (tumor micro-vessel density, IHC) ([3]; 50 mg/kg): 2.20 ± 0.29
T/C ([3]; 100 mg/kg p.o. QD): 27%
TGI ([3]; 100 mg/kg p.o. QD): 80%
Tumor volume at Day 21 ([3]; 100 mg/kg p.o. QD): 401 ± 38 mm^3
area of CD31 (tumor micro-vessel density, IHC) ([3]; 100 mg/kg): 1.27 ± 0.48
phosphorylation of FGFR1‒4 and ERK [5]: significantly inhibited
phosphorylation of PDGFRβ and ERK [6]: significantly blocked
phosphorylation of VEGFR2 and ERK [7]: significantly suppressed
T/C ([8]; 50 mg/kg p.o. QD): 58%
TGI ([8]; 50 mg/kg p.o. QD): 51%
Tumor volume at Day 21 ([8]; 50 mg/kg p.o. QD): 704 ± 107 mm^3
area of CD31 (tumor micro-vessel density, IHC) ([8]; 50 mg/kg): 1.96 ± 0.05
T/C ([8]; 100 mg/kg p.o. QD): 36%
TGI ([8]; 100 mg/kg p.o. QD): 72%
Tumor volume at Day 21 ([8]; 100 mg/kg p.o. QD): 478 ± 85 mm^3
area of CD31 (tumor micro-vessel density, IHC) ([8]; 100 mg/kg): 1.83 ± 0.26
area of CD31 (tumor micro-vessel density, IHC) ([9]; liver PDX model, 200 mg/kg, mean ± SEM, n = 3, control 0.30 ± 0.10): 0.19 ± 0.06
T/C [9, 15]: 35%
TGI [9, 15]: 76%
Tumor volume at Day 21 ([9]; liver cancer PDX model, 200 mg/kg oral QD, mean ± SEM): 334 ± 69 mm^3
tube formation of HUVECs (HUVECs [10]): significantly suppressed
migration of HUVECs (wound healing) (HUVECs [11]): appreciably inhibited
IC50 (HUVECs [12]): 71 nM
tumor angiogenesis and tumor size in zebrafish xenograft [13]: few tumors exhibiting angiogenesis and small tumors
IC50 (HBVPs): 1940 nM
invasion of HUVECs (HUVECs [14]): significantly inhibited

IC50 (VEGFR2): 9.4 nM
IC50 (FGFR1): 188 nM
IC50 (PDGFRβ): 143 nM
SMILES: COc1cc2nccc(Oc3ccc(NC(=S)NC4CC4)c(Cl)c3)c2cc1C(N)=O [WXFL-255, 4-(3-chloro-4-(3-cyclopropylthioureido)phenoxy)-7-methoxyquinoline-6-carboxamide]
IC50 (HUVECs [12]): 90.2 nM
